Values joined by “and” are separate entries in the source; they are usually repeats but may differ in a detail not shown here. Equal values may be shown once.

Series [1] in a line: Wetting front test (soil migration by capillary action in soil-filled tubes, wetting front measured by caliper). The following applies: for Migration: single replicates. It is filed as physicochemical. Here is the method:
• Polymer A: Polymer formed from glycerol and ethylene oxide and propylene oxide units; molecular weight about 3000 g/mol, hydroxyl number about 56 mg KOH/g, clear liquid, dynamic viscosity at 25° C. about 582 cP, density at 25° C. about 1.02 g/cm^3. • Polymer B: Liquid composition, 70 wt % Polymer A, 10 wt % nonionic surfactant (ethoxylated alcohol, HLB about 13, hydroxyl number about 125), 10 wt % anionic surfactant (dodecylbenzene calcium sulfonate), and 10 wt % 1,2-propylene glycol. • Surfactant A: liquid, nonionic ethoxylated tristyrylphenol, HLB 10-11. • Surfactant B: nonionic EO-PO-EO Triblockcopolymer, average molecular weight about 2500 Da, pour point −4° C., HLB 1-7, solubility in water at least 10 wt % at 25° C. • Surfactant C: Alkyl polyethylene glycol ether based on C10-Guerbet alcohol, HLB about 13, solubility in water at least 10 wt % at 23° C. • Surfactant D: Calcium dodecylbenzene sulfonate. • Silica Thickener: White powder, hydrophilic fumed silica, specific surface area (BET) about 200 m^2/g; average primary particle diameter 12 nm, tapped density about […]. Wetting Front Test Procedure
A fine nylon netting was adhered (Polyseamseal® Caulk, Henkel Corp) to one end each of 15 cm×1.5 cm plastic tubes. Tubes were filled with Greenville silt loam (sand:silt:clay, 22:58:20). As soil was added, tubes were tapped on the lab bench to loosely pack the soil (approximately 50 g soil per tube). Aqueous solutions of subject treatments were prepared. Solutions (4 ml) were added to glass beakers (50 ml capacity), and the soil-filled tubes were placed in the beakers. Each treatment was replicated 4 times. […] Means were separated at the […] via ANOVA followed by Tukey's HSD.

The nature of series [2]: Wetting front test with segment analysis (soil segments extracted with acetonitrile, broflanilide quantified by HPLC-UV). Type of series: physicochemical. The following applies: Example 3; for Concentration of broflanilide in segment 0-2 cm (average of four replicates): soil segment 0-2 cm; for Concentration of broflanilide in segment 2-4 cm (average of four replicates): soil segment 2-4 cm; for Concentration of broflanilide in segment 4-6 cm (average of four replicates): soil segment 4-6 cm; for Concentration of broflanilide in segment 6-8 cm (average of four replicates): soil segment 6-8 cm; for Concentration of broflanilide in segment 8-10 cm (average of four replicates): soil segment 8-10 cm. As for the experimental part: A fine nylon netting was adhered (Polyseamseal® Caulk, Henkel Corp) to one end each of 15 cm×1.5 cm plastic tubes. Tubes were filled with Greenville silt loam (sand:silt:clay, 22:58:20). As soil was added, tubes were tapped on the lab bench to loosely pack the soil (approximately 50 g soil per tube). Aqueous solutions of subject treatments were prepared. Solutions (4 ml) were added to glass beakers (50 ml capacity), and the soil-filled tubes were placed in the beakers. Each treatment was replicated 4 times. The solutions migrated upward into the soil via capillary action, and after 20 hours, the wetting front was measured in three locations using a digital caliper. Means were separated at the […] via ANOVA followed by Tukey's HSD. An aqueous solution comprising 600 ppm broflanilide was made from an aqueous suspension concentrate comprising 100 g/l broflanilide. Optionally 3000 ppm of Polymer B was added. The wetting front test was made as described above with another analytical method: The soil filled tubes (four replicates for both the sample with and without polymer) were separated in seven segments with each 2 cm long. The segment “0-2 cm” was the segment on the bottom which had direct contact to the aqueous solution of broflanilide. The segments (about 4.0 g each) were extracted twice with acetonitrile. The amount of broflanilide was quantified via HPLC with UV detection.

The mark [3] stands for this setting: Example 2, 600 ppm broflanilide + 1500 ppm Polymer A, Greenville silt loam, 20 hours.
Where [4] appears, read: Example 2, 600 ppm broflanilide + 3000 ppm Polymer A, Greenville silt loam, 20 hours.
The mark [5] stands for this setting: Example 2, 600 ppm broflanilide + 4200 ppm Polymer A, Greenville silt loam, 20 hours.
Where [6] appears, read: Example 4, 600 ppm broflanilide + 300 ppm Polymer A, Greenville silt loam, 20 hours.
[7] abbreviates: Example 4, 600 ppm broflanilide + 600 ppm Polymer A, Greenville silt loam, 20 hours.
[8] abbreviates: Example 4, 600 ppm broflanilide + 1500 ppm Polymer A, Greenville silt loam, 20 hours.
Setting [9] is: Example 4, 600 ppm broflanilide, no polymer, Greenville silt loam, 20 hours.
Where [10] appears, read: 600 ppm broflanilide + 3000 ppm Polymer B.
Where [11] appears, read: 600 ppm broflanilide, no polymer.
Where [12] appears, read: Example 1, 600 ppm chlorfenapyr + 1200 ppm Polymer B, Greenville silt loam, 20 hours.
The mark [13] stands for this setting: Example 1, 600 ppm chlorfenapyr + 3000 ppm Polymer B, Greenville silt loam, 20 hours.
The mark [14] stands for this setting: Example 5, 600 ppm fipronil + 1200 ppm Polymer B, after 2 h.
The mark [15] stands for this setting: Example 5, 600 ppm fipronil + 1200 ppm Polymer B, after 20 h.
[16] abbreviates: Example 5, 600 ppm fipronil + 3000 ppm Polymer B, after 2 h.
The mark [17] stands for this setting: Example 5, 600 ppm fipronil + 3000 ppm Polymer B, after 20 h.
The mark [18] stands for this setting: Example 5, 600 ppm fipronil, no polymer, after 20 h.

Turning to `CN(C(=O)c1ccccc1)c1cccc(C(=O)Nc2c(Br)cc(C(F)(C(F)(F)F)C(F)(F)F)cc2C(F)(F)F)c1F` [Broflanilide, broflanilide], the “Average Migration” value in series [1] (setting [3]) worked out at 9.29 cm; in series [1] (setting [4]) it was 8.74 cm; in series [1] (setting [5]) it was 8.79 cm; in series [1] (setting [6]) it was 7.78 cm; in series [1] (setting [7]) it was 7.98 cm; in series [1] (setting [8]), 7.72 cm. Besides, the “Average Migration” value in series [1] (setting [9]) is given as 6.89 cm. In addition, the Migration is 8.89 cm and 9.34 cm (2×) and 9.6 cm in series [1] (setting [3]); 8.53 cm and 8.62 cm and 8.60 cm and 9.19 cm in series [1] (setting [4]); 8.37 cm and 9.22 cm and 8.74 cm and 8.82 cm in series [1] (setting [5]); 7.90 cm and 7.72 cm and 7.71 cm and 7.80 cm in series [1] (setting [6]); 7.98 cm and 7.77 cm and 8.04 cm and 8.02 cm in series [1] (setting [7]); 7.73 cm and 7.69 cm and 7.82 cm and 7.64 cm in series [1] (setting [8]). The Migration in series [1] (setting [9]) is 7.32 cm and 6.75 cm and 6.61 cm and 6.88 cm. For the same compound, the entries for the “Concentration of broflanilide in segment 0-2 cm (average of four replicates)” value in series [2] (setting [10]) and in series [2] (setting [11]) were 170 ppm and 127 ppm, respectively. Further, the figures for the “Concentration of broflanilide in segment 2-4 cm (average of four replicates)” value in series [2] (setting [10]) and in series [2] (setting [11]) were 36 ppm and 51 ppm, respectively. Further, the “Concentration of broflanilide in segment 4-6 cm (average of four replicates)” value in series [2] (setting [10]) was found to be 16 ppm; in series [2] (setting [11]), 3 ppm. Also, the “Concentration of broflanilide in segment 6-8 cm (average of four replicates)” value in series [2] (setting [10]) came to 4 ppm; in series [2] (setting [11]) it was 0 ppm. Moreover, the “Concentration of broflanilide in segment 8-10 cm (average of four replicates)” value in series [2] (setting [10]) and in series [2] (setting [11]) was 0 ppm throughout.

Regarding `CCOCn1c(-c2ccc(Cl)cc2)c(C#N)c(Br)c1C(F)(F)F` [Chlorfenapyr, chlorfenapyr], the Migration in series [1] (Example 1, 600 ppm chlorfenapyr (Phantom SC), no polymer, Greenville silt loam, 20 hours) was 7.7780 cm and 7.5100 cm and 7.6600 cm and 7.7640 cm; in series [1] (setting [12]), 8.3770 cm and 8.3350 cm and 8.4290 cm and 8.4350 cm; in series [1] (setting [13]) it was 8.7420 cm and 8.7610 cm and 8.8760 cm and 8.8460 cm. Further, the “Average Migration” value is 8.39 cm in series [1] (setting [12]); 8.81 cm in series [1] (setting [13]); 7.68 cm in series [1] (Example 1, 600 ppm chlorfenapyr, no polymer, Greenville silt loam, 20 hours).

Take `N#Cc1nn(-c2c(Cl)cc(C(F)(F)F)cc2Cl)c(N)c1[S+]([O-])C(F)(F)F` (stereo not drawn) [Fipronil, fipronil]: the Migration in series [1] (Example 5, 600 ppm fipronil (Termidor SC), no polymer, after 2 h) was 6.0 cm and 6.1 cm and 6.5 cm and 6.4 cm; in series [1] (setting [14]), 6.5 cm and 7.0 cm and 6.7 cm and 6.6 cm; in series [1] (setting [15]), 7.7 cm and 8.0 cm (3×); in series [1] (setting [16]), 7.1 cm and 7.0 cm (2×) and 6.8 cm; in series [1] (setting [17]), 8.5 cm and 8.3 cm and 8.4 cm (2×); in series [1] (setting [18]), 7.0 cm and 7.4 cm (2×) and 7.7 cm. Further, the “Average Migration” value in series [1] (setting [14]) is given as 6.70 cm; in series [1] (setting [15]), 7.93 cm; in series [1] (setting [16]) it was 6.98 cm; in series [1] (setting [17]) it was 8.40 cm; in series [1] (Example 5, 600 ppm fipronil, no polymer, after 2 h), 6.25 cm; in series [1] (setting [18]), 7.38 cm.

These data come from US12279611B2, “Method for controlling insects where an alkoxylated glycerol is applied to soil” (priority 2016, dated 2025).
